One test concerns the target T1, b-Raf (V600E) (Homo sapiens, UniProt P15056, V600E).
T1 construct: made in house
Briefly: In vitro Raf activity determination (Alpha Screen, biotinylated kinase-dead MEK1 substrate), B-Raf. The test is classed as biochemical. The note with it: b-Raf (V600E) approximately 4 pM; ATP 10 μM; pre-incubation 60 minutes; reaction 3 hours at room temperature. As for the experimental part:
(§1) Full length MEK1 with an inactivating K97R ATP binding site mutation is utilized as a RAF substrate. The MEK1 cDNA was subcloned with an N-terminal (his)6 tag into a vector for E. Coli expression. The MEK1 substrate was purified from E. Coli lysate by nickel affinity chromatography followed by anion exchange. The final MEK1 preparation was biotinylated (Pierce EZ-Link Sulfo-NHS-LC-Biotin) and concentrated.
(§2) Assay Materials: Assay buffer is 50 mM Tris, pH 7.5, 15 mM MgCl2, 0.01% Bovine Serum Albumin (BSA) and 1 mM dithiothreitol (DTT); Stop buffer is 60 mM ethylenediaminetetraacetic acid (EDTA) and 0.01% Tween® 20; b-Raf (V600E), active; biotinylated Mek, kinase dead; Alpha Screen detection kit (available from PerkinElmer™, #6760617R); Anti phospho-MEK1/2 (available from Cell Signaling Technology, Inc. #9121); 384 well low volume assay plates (White Greiner® plates).
(§3) Assay conditions: b-Raf (V600E) approximately 4 pM; c-Raf approximately 4 nM; biotinylated Mek, kinase dead approximately 10 nM; ATP 10 μM for BRAF (V600E) and 1 μM for CRAF; Pre-incubation time with compounds 60 minutes at room temperature; Reaction time 1 or 3 hours at room temperature.
(§4) Assay protocol: Raf and biotinylated Mek (kinase dead) were combined at 2× final concentrations in assay buffer (50 mM Tris, pH 7.5, 15 mM MgCl2, 0.01% BSA and 1 mM DTT) and dispensed […] per well in assay plates (Greiner white 384 well assay plates #781207) containing […] of 40× of a Raf kinase inhibitor test compound diluted in 100% DMSO. The plate was incubated for 60 minutes at room temperature. The Raf kinase activity reaction was started by the addition of […] per well of 2×ATP diluted in assay buffer. After 3 hours (b-Raf(V600E)) or 1 hour (c-Raf). The reactions were stopped and the phosphorylated product was measured using a rabbit anti-p-MEK (Cell Signaling, #9121) antibody and the Alpha Screen IgG (ProteinA) detection Kit (PerkinElmer #6760617R), by the addition of […] to the well of a mixture of the antibody (1:2000 dilution) and detection beads (1:2000 dilution of both beads) in Stop/bead buffer (25 mM EDTA, 50 mM Tris, pH 7.5, 0.01% Tween20). The additions were carried out under dark conditions to protect the detection beads from light. A lid was placed on top of the plate and incubated for 1 hour at room temperature, after which the luminescence was read on a PerkinElmer Envision instrument. The concentration of each compound for 50% inhibition (IC50) was calculated by non-linear regression using XL Fit data analysis software.

In another test the target is T2, C-RAF (Homo sapiens, UniProt P04049, Y340E/Y341E).
T2 construct: His tag (implied by nickel chromatography) (cleaved yes); StrepII tag (cleaved yes); made in house; host or cells: Sf9 insect cells (baculovirus), CRAF and h14-3-3 zeta co-expressed; MEK1 substrate from E. coli
T2 sequence (P04049 whole entry Y340E/Y341E): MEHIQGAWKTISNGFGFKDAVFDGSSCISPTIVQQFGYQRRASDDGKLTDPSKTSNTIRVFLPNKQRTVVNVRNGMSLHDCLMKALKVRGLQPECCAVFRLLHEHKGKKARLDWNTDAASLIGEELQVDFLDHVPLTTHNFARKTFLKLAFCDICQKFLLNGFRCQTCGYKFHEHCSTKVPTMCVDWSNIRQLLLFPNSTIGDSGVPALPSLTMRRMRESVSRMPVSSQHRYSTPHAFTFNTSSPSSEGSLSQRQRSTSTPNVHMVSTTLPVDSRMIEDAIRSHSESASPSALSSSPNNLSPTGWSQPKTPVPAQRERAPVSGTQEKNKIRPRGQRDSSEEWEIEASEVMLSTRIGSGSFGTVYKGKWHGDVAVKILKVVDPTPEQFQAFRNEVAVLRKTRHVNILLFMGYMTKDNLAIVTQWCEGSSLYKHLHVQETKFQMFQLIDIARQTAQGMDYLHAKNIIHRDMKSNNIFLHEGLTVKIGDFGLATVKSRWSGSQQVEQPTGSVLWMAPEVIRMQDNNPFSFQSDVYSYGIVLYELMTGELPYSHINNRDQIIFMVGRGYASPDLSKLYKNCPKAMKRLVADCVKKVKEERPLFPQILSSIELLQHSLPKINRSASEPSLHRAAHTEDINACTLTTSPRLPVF
T2 sequence (P63104 whole entry partner): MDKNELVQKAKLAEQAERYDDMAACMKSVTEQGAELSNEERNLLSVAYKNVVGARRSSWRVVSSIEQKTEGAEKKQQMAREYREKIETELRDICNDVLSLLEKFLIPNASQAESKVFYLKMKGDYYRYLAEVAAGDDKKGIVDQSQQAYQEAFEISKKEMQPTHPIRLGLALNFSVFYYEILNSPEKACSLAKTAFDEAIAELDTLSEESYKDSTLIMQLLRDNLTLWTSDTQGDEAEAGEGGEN
The test is described as follows: In vitro Raf activity determination (Alpha Screen, biotinylated kinase-dead MEK1 substrate), C-Raf. The test is classed as biochemical. As to conditions: c-Raf approximately 4 nM; ATP 1 μM; pre-incubation 60 minutes; reaction 1 hour at room temperature.
Excerpt: CRAF cDNA was subcloned as full length protein, with Y340E and Y341E activating mutations, into a baculovirus expression vector for Sf9 insect cell expression. h14-3-3 zeta cDNA was subcloned into a baculovirus expression vector for SF9 insect cell expression. Sf9 cells co-expressing both proteins were lysed and subjected to immobilized nickel chromatography and eluted with Imidazole. A second column (StrepII binding column) was used and eluted with desthiobiotin. Protein Tags were removed using Prescission enzyme and the protein was further purified using a flowthrough step to remove tags.
C-Raf TR refers to a truncated C-Raf protein, a Δ1-324 deletion mutant. C-Raf FL refers to the full-length C-Raf protein.
as §1, §2, §3, §4

pIC50: −log10 of the molar value.

T1 sequence (P15056 whole entry V600E): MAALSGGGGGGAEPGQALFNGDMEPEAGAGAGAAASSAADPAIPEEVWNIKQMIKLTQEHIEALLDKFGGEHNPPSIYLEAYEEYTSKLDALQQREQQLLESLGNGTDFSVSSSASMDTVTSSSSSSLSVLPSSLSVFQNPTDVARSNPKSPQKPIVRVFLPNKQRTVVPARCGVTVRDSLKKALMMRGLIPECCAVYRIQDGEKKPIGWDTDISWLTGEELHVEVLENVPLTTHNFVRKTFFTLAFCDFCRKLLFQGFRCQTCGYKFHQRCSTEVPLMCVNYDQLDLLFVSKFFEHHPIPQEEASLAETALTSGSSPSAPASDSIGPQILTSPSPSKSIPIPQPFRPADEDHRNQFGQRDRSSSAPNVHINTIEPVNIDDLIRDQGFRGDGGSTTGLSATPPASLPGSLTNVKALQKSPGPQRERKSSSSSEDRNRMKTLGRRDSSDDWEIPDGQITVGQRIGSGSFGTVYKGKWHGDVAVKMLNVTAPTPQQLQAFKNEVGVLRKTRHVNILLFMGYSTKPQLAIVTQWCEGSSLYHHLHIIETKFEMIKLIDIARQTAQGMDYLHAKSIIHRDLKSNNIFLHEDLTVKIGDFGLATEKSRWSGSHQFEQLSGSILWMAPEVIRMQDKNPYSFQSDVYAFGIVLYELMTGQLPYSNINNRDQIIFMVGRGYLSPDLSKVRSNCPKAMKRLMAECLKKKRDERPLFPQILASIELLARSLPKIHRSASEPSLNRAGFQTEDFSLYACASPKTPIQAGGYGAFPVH

What is called pIC50 is −log10 of the IC50, conventionally taken in molar units. A higher pIC50 goes with a low IC50. Turning to `Cc1ncc(NC(=O)c2ccnc(C(C)(C)C#N)c2)cc1-c1cnc(-c2c(C)nn(C)c2C)c(C#N)c1` [Example 114, N-(5′-cyano-2-methyl-6′-(1,3,5-trimethyl-1H-pyrazol-4-yl)-[3,3′-bipyridin]-5-yl)-2-(2-cyanopropan-2-yl)isonicotinainide], the pIC50 is 7.49 against b-Raf (V600E) and 8.09 against C-RAF.
For `Cc1ccc(NC(=O)c2ccnc(C(F)F)c2)cc1-c1cnc(NC2CCOCC2)c(C#N)c1` [Example 169, N-(3-(5-cyano-6-((tetrahydro-2H-pyran-4-yl)amino)pyridin-3-yl)-4-methylphenyl)-2-(difluoromethyl) isonicotinamide] the same measures were 9.29 and 9.81.
For `CCCNc1ncc(-c2cc(NC(=O)c3cccc(C(F)(F)F)c3)ccc2C)cc1C#N` [Example 39, N-(3-(5-cyano-6-(propylamino)pyridin-3-yl)-4-methylphenyl)-3-(trifluoromethyl) benzamide] the same measures were 8.40 and 9.37.
Take `Cc1ncc(NC(=O)c2cc(C(C)(C)F)ccn2)cc1-c1cnc(N2CC(C)(O)C2)c(C#N)c1` [Example 243, N-(5′-cyano-6′-(3-hydroxy-3-methylazetidin-1-yl)-2-methyl-[3,3′-bipyridin]-5-yl)-4-(2-fluoropropan-2-yl)picolinamide]: the negative-log IC50 (pIC50) was 8.01 against b-Raf (V600E) and 8.99 at C-RAF.
The like results for `Cc1ncc(NC(=O)c2ccnc(C(C)(C)O)c2)cc1-c1cnc(N2CC(C)(O)C2)c(C#N)c1` [Example 185, N-(5′-cyano-6′-(3-hydroxy-3-methylazetidin-1-yl)-2-methyl-[3,3′-bipyridin]-5-yl)-2-(2-hydroxypropan-2-yl)isonicotinamide] were, in that order, 7.21 and 7.96.
Turning to `Cc1ncc(NC(=O)c2ccnc(C(F)(F)F)c2)cc1-c1cnc(-c2cccnc2)c(C#N)c1` [Example 104, N-(3′-cyano-2″- methyl-[3,2′:5′,3″- terpyridin]-5″-yl)-2-(trifluoromethyl) isonicotinamide], the negative logarithm of the IC50 (pIC50) against b-Raf (V600E) was 8.50; at C-RAF it was 9.23.
For `Cc1ccc(NC(=O)c2cc(C(C)(C)N)cc(C(F)(F)F)c2)cc1-c1cnc(N2CC(C)(O)C2)c(C#N)c1` [Example 248, 3-(2-aminopropan-2-yl)-N-(3-(5-cyano-6-(3-hydroxy-3-methylazetidin-1-yl)pyridin-3-yl)-4-methylphenyl)-5-(trifluoromethyl) benzamide] the same measures were 7.97 and 8.70.
The like results for `Cc1ncc(NC(=O)c2ccnc(C(C)(C)C#N)c2)cc1-c1cnc(-n2ccnc2C)c(C#N)c1` [Example 81, N-(5′-cyano-2-methyl-6′-(2-methyl-1H-imidazol-1-yl)-[3,3′-bipyridin]-5-yl)-2-(2-cyanopropan-2-yl)isonicotinamide] were, in that order, 7.04 and 7.82.
The like results for `Cc1ncc(NC(=O)c2ccnc(C(F)F)c2)cc1-c1cnc(NC2CCOCC2)c(C#N)c1` [Example 171, N-(5′-cyano-2-methyl-6′-((tetrahydro-2H-pyran-4-yl)amino)-[3,3′-bipyridin]-5-yl)-2-(difluoromethyl) isonicotinamide] were, in that order, 8.38 and 9.03.
With `Cc1ccc(NC(=O)c2cccc(C(F)(F)F)c2)cc1-c1cc(C#N)c(N)nc1C` [Example 41, N-(3-(6-amino-5-cyano-2-methylpyridin-3-yl)-4-methylphenyl)-3-(trifluoromethyl) benzamide], the pIC50 was 7.78 at b-Raf (V600E) and 8.96 against C-RAF.
The like results for `COCCNc1ncc(-c2cc(NC(=O)c3cc(C(F)(F)F)ccn3)cnc2C)cc1C#N` [Example 229, N-(5′-cyano-6′-((2-methoxyethyl)amino)-2-methyl-[3,3′-bipyridin]-5-yl)-4-(trifluoromethyl) picolinamide] were, in that order, 8.30 and 8.86.
The like results for `Cc1ncc(NC(=O)c2cc(C(C)(C)O)ccn2)cc1-c1cnc(N2CCOCC2)c(C#N)c1` [Example 234, N-(5′-cyano-2-methyl-6′-morpholino-[3,3′-bipyridin]-5-yl)-4-(2-hydroxypropan-2-yl)picolinamide] were, in that order, 8.41 and 8.65.
For `Cc1ncc(NC(=O)c2ccnc(C(C)(C)C#N)c2)cc1-c1cnc(N2CCO[C@@H](C)C2)c(C#N)c1` [Example 74, (S)-N-(5′-cyano-2-methyl-6′-(2-methylmorpholino)-[3,3′-bipyridin]-5-yl)-2-(2-cyanopropan-2-yl)isonicotinamide] the same measures were 8.26 and 8.79.
With `COCCNc1ncc(-c2cc(NC(=O)c3cnnc(C(F)(F)F)c3)cnc2C)cc1C#N` [Example 203, N-(5′-cyano-6′-((2-methoxyethyl)amino)-2-methyl-[3,3′-bipyridin]-5-yl)-6-(trifluoromethyl) pyridazine-4-carboxamide], the figures for the pIC50 on b-Raf (V600E) and on C-RAF were 7.32 and 8.09, respectively.
The like results for `CCn1cc(C(=O)Nc2cnc(C)c(-c3cnc(N(C)C)c(C#N)c3)c2)c(C)n1` [Example 263, N-(5′-cyano-6′-(dimethylamino)-2-methyl-[3,3′-bipyridin]-5-yl)-1-ethyl-3-methyl-1H-pyrazole-4-carboxamide] were, in that order, 6.05 and 7.26.
For `Cc1ncc(NC(=O)c2ccnc(C3(C#N)CC3)c2)cc1-c1cnc(C2CCOCC2)c(C#N)c1` [Example 148, N-(5'-cyano-2-methyl-6'-(tetrahydro-2H-pyran-4-yl)-[3,3'-bipyridin]-5-yl)-2-(1-cyanocyclopropyl) isonicotinamide] the same measures were 8.48 and 9.14.
The like results for `Cc1ccc(NC(=O)c2cccc(S(C)(=O)=O)c2)cc1-c1cnc(N2CCNCC2)c(C#N)c1` [Example 159, N-(3-(5-cyano-6-(piperazin-1-yl)pyridin-3-yl)-4-methylphenyl)-3-(methylsulfonyl) benzamide] were, in that order, 8.83 and 9.71.
Regarding `Cc1ncc(NC(=O)c2ccnc(C(C)(C)C#N)c2)cc1-c1cnc(N)c(C#N)c1` [Example 38, N-(6′-amino-5′-cyano-2-methyl-[3,3′-bipyridin]-5-yl)-2-(2-cyanopropan-2-yl)isonicotinamide], the pIC50 on b-Raf (V600E) is 7.78; on C-RAF, 8.74.
The like results for `Cc1ncc(NC(=O)c2ccnc(C3CC3)c2)cc1-c1cnc(C2CCOCC2)c(C#N)c1` [Example 131, N-(5′-cyano-2-methyl-6′-(tetrahydro-2H-pyran-4-yl)-[3,3′-bipyridin]-5-yl)-2-cyclopropyl-isonicotinamide] were, in that order, 8.37 and 9.13.
The like results for `Cc1ccc(NC(=O)c2cc(C(C)(C)N)cc(C(F)(F)F)c2)cc1-c1cnc(N2CCOCC2)c(C#N)c1` [Example 249, 3-(2-aminopropan-2-yl)-N-(3-(5-cyano-6-morpholinopyridin-3-yl)-4-methylphenyl)-5-(trifluoromethyl) benzamide] were, in that order, 8.60 and 9.19.
The like results for `Cc1ncc(NC(=O)c2ccnc(C3CC3)c2)cc1-c1cnc(N2CCOCC2)c(C#N)c1` [Example 134, N-(5′-cyano-2-methyl-6′-morpholino-[3,3′-bipyridin]-5-yl)-2-cyclopropyl-isonicotinamide] were, in that order, 8.83 and 9.63.

The values above are taken from patent US10392404B2, “Compounds and compositions as kinase inhibitors” (NOVARTIS AG, priority 2014, dated 2019).
